Data taken from PubChem BioAssay (NCI).
Values joined by “and” are separate entries in the source; they are usually repeats but may differ in a detail not shown here. Equal values may be shown once.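 Results reflect a 48-hour exposure of cells in 96-well plates to compound at five concentrations. GI50: concentration for 50% inhibition of growth. TGI is the concentration that stops growth completely.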

Key:
Experiment in all cases: NCI anticancer screen, dose series, 48 h
SNB-19 CNS = tested on: SNB-19 CNS
KM12 colon = tested on: KM12 colon
A498 renal = tested on: A498 renal
UACC-257 melanoma = tested on: UACC-257 melanoma
SF-295 CNS = tested on: SF-295 CNS
UO-31 renal = tested on: UO-31 renal
SF-539 CNS = tested on: SF-539 CNS
HCC-2998 colon = tested on: HCC-2998 colon
SK-MEL-5 melanoma = tested on: SK-MEL-5 melanoma

Structure (SMILES) | TGI (SNB-19 CNS) [µM] | TGI (KM12 colon) | TGI (A498 renal) | TGI (UACC-257 melanoma) [µM] | TGI (SF-295 CNS) [µM] | TGI (UO-31 renal) [µM] | TGI (SF-539 CNS) | TGI (HCC-2998 colon) | TGI (SK-MEL-5 melanoma) [µM] | GI50 (KM12 colon) [µM] | GI50 (UO-31 renal) [µM] | GI50 (SF-539 CNS) [µM] | GI50 (SNB-19 CNS) | GI50 (A498 renal) [µM] | GI50 (SF-295 CNS) [µM] | GI50 (HCC-2998 colon) [µM] | GI50 (SK-MEL-5 melanoma) [µM]
C=C(C[N+](C)(C)C)N/N=C/c1oc(-c2ccc(OC)c(OC)c2)c(-c2ccc(OC)c(OC)c2)c1[N+](=O)[O-] | > 100 | 31.5 µM | 82.3 µM | 46.6 | 39.6 | 33.7 | 31.6 µM | 35.5 µM | 31.7 |  |  |  |  |  |  |  | 
BrC(Br)([P+](c1ccccc1)(c1ccccc1)c1ccccc1)[P+](c1ccccc1)(c1ccccc1)c1ccccc1 |  |  | 48 µM | 50.5 | > 100 | > 100 | 27.8 µM | 31.8 µM | 32.2 |  |  |  |  |  |  |  | 
COC(=O)C1=C(C(=O)OC)N(C(C)C)[C@H]2C(C(=O)OC)=C(C(=O)OC)N(C(C)C)[C@@H]12 | > 100 | > 100 µM | > 100 µM | > 100 | > 100 | > 100 | > 100 µM |  | > 100 |  |  |  |  |  |  |  | 
O=c1ncccn1C1OC(CO)C(O)C1F (stereo unspecified) | > 100 | > 100 µM | > 100 µM | > 100 | > 100 | > 100 | > 100 µM | > 100 µM | > 100 | > 100 | > 100 | > 100 |  |  |  |  | 
COc1cc2c3c(c1OC)/C(=N/OS(=O)(=O)c1ccc(C)cc1)CC3N(S(=O)(=O)c1ccc(C)cc1)CC2 (stereo unspecified) | > 100 | > 100 µM | > 100 µM | > 100 | > 100 | > 100 | > 100 µM | > 100 µM | > 100 |  |  |  |  |  |  |  | 
C1=CC=C2NCCSCCNC3=CC=CC=CC3=NCCSCCN=C2C=C1 | > 100 | > 100 µM | > 100 µM | > 100 | > 100 | > 100 |  | > 100 µM | > 100 |  |  |  |  |  |  |  | 
C/C(N=NC(=S)N1CCCCCC1)=C1\C=CC=CN1O | > 100 | > 100 µM | 92.1 µM | 10.9 | > 100 | > 100 | 48.2 µM | > 100 µM | 35.3 |  |  |  |  |  |  |  | 
CCOC(=O)c1cc(C(=O)O)c(=O)n2c1[nH]c1ccccc12 | > 100 | > 100 µM | > 100 µM | > 100 | > 100 | 87.7 | > 100 µM | > 100 µM | > 100 |  |  |  |  |  |  |  | 
CCCC/C=C1\CCC(CN2CCCC2)C1=O (stereo unspecified) | 48.9 | 8.28 µM | 28.2 µM | 32.8 | 36.4 | 32.3 | 29.8 µM | 33.7 µM | 31.1 |  |  |  |  |  |  |  | 
Cc1ccc(N2C(=O)/C(=C3\Sc4c(nc(C)n(C)c4=O)N3c3ccccc3)SC2=S)cc1 | > 100 | > 100 µM | 69 µM | > 100 | > 100 | > 100 | 33.7 µM | > 100 µM | > 100 |  |  |  |  |  |  |  | 
CCC1(Cl)C(=O)NC(=O)N(C2CC(O)C(CO)O2)C1N=[N+]=[N-] (stereo unspecified) | > 100 |  | > 100 µM | > 100 | > 100 | > 100 | > 100 µM | > 100 µM | > 100 |  |  |  |  |  |  |  | 
COc1cc2c(c(OC)c1OC)-c1ccc(SC)c(=O)cc1[C@@H](NC(=O)c1ccc(F)cc1)CC2 |  | 0.0871 µM and 0.0284 µM | 0.0757 µM and < 0.01 µM | > 100 |  | 46.6 | 0.0696 µM and < 0.01 µM | 0.0572 µM and < 0.01 µM |  | < 0.01 |  | < 0.01 | 0.0287 µM and < 0.01 µM | < 0.01 | < 0.01 | < 0.01 | 0.0305
C=C1c2ccccc2N(S(=O)(=O)c2ccc(C)cc2)C12CCCCC2 | > 100 | > 100 µM |  | > 100 | > 100 | > 100 | > 100 µM | > 100 µM | > 100 |  |  |  |  |  |  |  | 
CC(C)(C)c1cc(C(=O)O)c(C(c2ccccc2)c2ccccc2C(=O)O)c(C(=O)O)c1 (stereo unspecified) | > 100 | > 100 µM |  | > 100 | > 100 | > 100 | > 100 µM |  |  |  |  |  |  |  |  |  | 
CC12O[Te]34OC1(C)C(C)(O3)C2(C)O4 | 37.5 | 27.4 µM | > 8.75 µM | 33.6 | 18.3 | 23.5 | 28.2 µM | 14.1 µM |  |  |  |  |  |  |  |  | 
Nc1nc(Cl)cc(NCCCCCCNc2cc(Cl)nc(N)n2)n1 | > 100 | > 100 µM |  | > 100 | > 100 | > 100 | > 100 µM | > 100 µM | > 100 |  |  |  |  |  |  |  | 
c1cc2ccc1C1NCCCN1CCN1CCCNC1c1ccc(cc1)C1NCCCN1CCN1CCCNC21 (stereo unspecified) | > 100 | > 100 µM | > 100 µM | > 100 | > 100 | > 100 | > 100 µM |  | > 100 |  |  |  |  |  |  |  | 
O=C(O)C(CS)N=Cc1nc(-c2ccccc2)oc1O (stereo unspecified) | > 100 |  | > 100 µM | > 100 | > 100 | > 100 | > 100 µM | > 100 µM | > 100 |  |  |  |  |  |  |  | 
